Experimental data as given in patent US6929810B2, “Preparation of essential oil compositions for portable liquid disinfection” (Council of Scientific and Industrial Research, priority 2001, dated 2005).

Tested on: E. coli
Assay: bore-well method (zone of inhibition)
Format: cell-based
Details: standard antibiotics available in the market

In order of falling “Zone of Inhibition, Antibiotic” value:
1. O=C(N[C@H](CO)[C@H](O)c1ccc([N+](=O)[O-])cc1)C(Cl)Cl [Chloromphenilcol]  35 mm
2. NC[C@H]1O[C@H](O[C@H]2[C@H](O)[C@@H](O[C@H]3O[C@H](CO)[C@@H](O)[C@H](N)[C@H]3O)[C@H](N)C[C@@H]2N)[C@H](O)[C@@H](O)[C@@H]1O [Kanamycin]  30 mm
3. CN(C)[C@@H]1C(O)=C(C(N)=O)C(=O)[C@@]2(O)C(O)=C3C(=O)c4c(O)cccc4[C@@](C)(O)[C@H]3C[C@@H]12 [Tetracycline]  24 mm
4. Gentamycin  24 mm
5. CC1(C)S[C@@H]2[C@H](NC(=O)[C@H](N)c3ccccc3)C(=O)N2[C@H]1C(=O)O [Ampicillin]  14 mm
6. CC[C@H]1OC(=O)[C@H](C)[C@@H](O[C@H]2C[C@@](C)(OC)[C@@H](O)[C@H](C)O2)[C@H](C)[C@@H](O[C@@H]2O[C@H](C)C[C@H](N(C)C)[C@H]2O)[C@](C)(O)C[C@@H](C)C(=O)[C@H](C)[C@@H](O)[C@]1(C)O [Erythromycin]  10 mm
